Drawing on ChEMBL document CHEMBL3797029, “Purinylpyridinylamino-based DFG-in/αC-helix-out B-Raf inhibitors: Applying mutant versus wild-type B-Raf selectivity indices for compound profiling” (Bioorg Med Chem, 2016), this text covers IC50, EC50 and Ratio for 35 compounds.

Where only a bound is given, the exact number is not on record here.

Assay [1] deals with T1, Serine/threonine-protein kinase B-raf (Homo sapiens, UniProt P15056, V600E). Nature of the assay: Inhibition of B-Raf V600E mutant (unknown origin) assessed as MEK1 phosphorylation using MEK1-Avitag as substrate after 1 hr by HTRF assay.
Assay [2] concerns the target T2, Serine/threonine-protein kinase B-raf (Homo sapiens, UniProt P15056). Put plainly: Inhibition of wild type B-Raf (unknown origin) assessed as MEK1 phosphorylation using MEK1-Avitag as substrate after 1 hr by HTRF assay.
Assay [3] has as its target T1, Serine/threonine-protein kinase B-raf. Nature of the assay: Inhibition of B-Raf V600E mutant in human A375 cells assessed as ERK phosphorylation preincubated for 1 hr by Western blot method. The class given is cell-based, A-375.
Assay [4] deals with T2, Serine/threonine-protein kinase B-raf. Put plainly: Inhibition of wild type B-Raf in human MIAPaCa2 cells assessed as reduction in ERK phosphorylation preincubated for 1 hr by Western blot method. Format: cell-based, MIA PaCa-2. (A western blot detects proteins with antibodies after separation by electrophoresis.)
Another assay deals with MIA PaCa-2. Nature of the assay: Selectivity index, ratio of EC50 for wild type B-Raf in human MIAPaCa2 cells to IC50 for B-Raf V600E mutant in human A375 cells. Format: cell-based.

T1 sequence (P15056 2-766 V600E limits assumed): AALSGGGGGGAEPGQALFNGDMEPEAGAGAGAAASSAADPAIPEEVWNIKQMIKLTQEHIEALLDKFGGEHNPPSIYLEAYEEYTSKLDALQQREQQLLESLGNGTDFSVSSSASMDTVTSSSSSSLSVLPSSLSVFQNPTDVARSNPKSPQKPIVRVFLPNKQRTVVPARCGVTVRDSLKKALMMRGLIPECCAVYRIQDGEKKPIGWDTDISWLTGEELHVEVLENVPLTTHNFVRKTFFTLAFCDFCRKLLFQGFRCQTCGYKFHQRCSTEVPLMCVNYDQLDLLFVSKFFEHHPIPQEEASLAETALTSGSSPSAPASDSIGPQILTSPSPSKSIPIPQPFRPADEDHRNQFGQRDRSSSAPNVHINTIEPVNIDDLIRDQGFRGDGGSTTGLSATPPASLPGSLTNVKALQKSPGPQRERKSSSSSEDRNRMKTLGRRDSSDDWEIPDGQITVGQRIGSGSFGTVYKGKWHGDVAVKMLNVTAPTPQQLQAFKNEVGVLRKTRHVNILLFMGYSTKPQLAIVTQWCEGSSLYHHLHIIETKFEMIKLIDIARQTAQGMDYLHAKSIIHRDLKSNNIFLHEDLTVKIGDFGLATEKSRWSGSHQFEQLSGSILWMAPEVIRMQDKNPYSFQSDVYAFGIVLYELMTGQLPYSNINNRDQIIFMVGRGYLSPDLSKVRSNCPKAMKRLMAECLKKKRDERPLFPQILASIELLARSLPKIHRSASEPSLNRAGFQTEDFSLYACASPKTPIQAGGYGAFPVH
T2 sequence (P15056 whole entry): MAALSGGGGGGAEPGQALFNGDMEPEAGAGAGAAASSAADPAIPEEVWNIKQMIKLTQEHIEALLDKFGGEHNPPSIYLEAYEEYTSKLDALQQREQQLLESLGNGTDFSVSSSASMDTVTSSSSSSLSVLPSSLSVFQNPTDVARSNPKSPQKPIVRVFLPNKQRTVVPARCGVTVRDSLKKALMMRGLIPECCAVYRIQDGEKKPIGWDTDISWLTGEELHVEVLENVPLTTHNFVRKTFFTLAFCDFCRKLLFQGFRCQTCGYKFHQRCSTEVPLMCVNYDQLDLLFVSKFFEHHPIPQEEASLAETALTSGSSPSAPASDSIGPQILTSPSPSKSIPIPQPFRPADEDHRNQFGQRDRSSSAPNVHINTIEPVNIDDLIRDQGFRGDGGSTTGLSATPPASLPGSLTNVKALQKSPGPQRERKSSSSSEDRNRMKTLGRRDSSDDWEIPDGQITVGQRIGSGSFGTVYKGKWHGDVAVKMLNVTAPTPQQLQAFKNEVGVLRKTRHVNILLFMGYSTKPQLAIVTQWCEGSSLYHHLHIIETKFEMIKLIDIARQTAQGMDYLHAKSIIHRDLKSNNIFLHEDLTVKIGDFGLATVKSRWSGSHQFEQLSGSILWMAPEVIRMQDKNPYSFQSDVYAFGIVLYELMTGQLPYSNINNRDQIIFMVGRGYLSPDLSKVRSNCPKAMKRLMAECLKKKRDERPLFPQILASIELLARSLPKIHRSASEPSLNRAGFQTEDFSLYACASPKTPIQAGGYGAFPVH

Take `CC(C)CS(=O)(=O)Nc1ccc(F)c(Nc2ncccc2-c2ncnc3[nH]cnc23)c1F`: the IC50 (commonly the midpoint of a concentration-inhibition curve) in assay [1] was determined as 6 nM; in assay [2], 16 nM; in assay [3], 17 nM. For the same compound, in assay [4], the EC50 (in general, the midpoint of the concentration-response curve) is 1450 nM. Further, the Ratio in the assay with MIA PaCa-2 was 85.

`O=S(=O)(Nc1ccc(F)c(Nc2ncccc2-c2ncnc3[nH]cnc23)c1F)c1cccs1`: the figures for the IC50 in assay [1], in assay [2] and in assay [3] were 1 nM, 0.5 nM and 7 nM, respectively. The EC50 in assay [4] worked out at 402 nM. Moreover, the Ratio with MIA PaCa-2 was determined as 57.

Regarding `CCCC(C)S(=O)(=O)Nc1ccc(F)c(Nc2ncccc2-c2ncnc3[nH]cnc23)c1F` (stereo not given), the IC50 in assay [1] was 18 nM; in assay [2] it was 112 nM; in assay [3], 130 nM. Also, the EC50 in assay [4] came to 8090 nM. Also, in the assay with MIA PaCa-2, the Ratio amounted to 62.

As to `O=S(=O)(Nc1ccc(F)c(Nc2ncccc2-c2ncnc3[nH]cnc23)c1F)C1CCCCC1`, the IC50 in assay [1] was 18 nM; in assay [2], 51 nM; in assay [3], 40 nM. In addition, in assay [4], the EC50 worked out at 4370 nM. Also, in the assay with MIA PaCa-2, the Ratio came to 109.

Take `O=S(=O)(Nc1ccc(F)c(Nc2ncccc2-c2ncnc3[nH]cnc23)c1F)c1cccnc1`: the IC50 in assay [1] amounted to 1 nM; in assay [2] it was 1 nM; in assay [3], 10 nM. The EC50 in assay [4] stood at 786 nM. Further, in the assay on MIA PaCa-2, the Ratio was 79.

Consider `O=S(=O)(Nc1ccc(F)c(Nc2ncccc2-c2ncnc3[nH]cnc23)c1F)c1ccccc1F`, for which the half-maximal inhibitory concentration (IC50) in assay [1] turned out to be 3 nM; in assay [2], 10 nM; in assay [3], 12 nM. Further, the EC50 in assay [4] amounted to 873 nM. In addition, in the assay with MIA PaCa-2, the Ratio was 73.

Consider `O=S(=O)(CC1CC1)Nc1ccc(F)c(Nc2ncccc2-c2ncnc3[nH]cnc23)c1F`, for which the IC50 was determined as 8 nM in assay [1], 26 nM in assay [2] and 33 nM in assay [3]. Also, the concentration giving a half-maximal response (EC50) in assay [4] worked out at 2140 nM. In the assay on MIA PaCa-2, the Ratio worked out at 65.

Consider `Cc1n[nH]c(C)c1S(=O)(=O)Nc1ccc(F)c(Nc2ncccc2-c2ncnc3[nH]cnc23)c1F`, for which the results for the IC50 in assay [1] and in assay [3] were 216 nM and more than 1000 nM, respectively.

As to `Cn1cc(S(=O)(=O)Nc2ccc(F)c(Nc3ncccc3-c3ncnc4[nH]cnc34)c2F)cn1`, the half-inhibitory concentration (IC50) in assay [1] was 8 nM; in assay [2] it was 19 nM; in assay [3] it was 710 nM. Moreover, in assay [4], the EC50 worked out at 2220 nM. In addition, the Ratio in the assay on MIA PaCa-2 amounted to 3.

Regarding `O=S(=O)(Nc1ccc(F)c(Nc2ncccc2-c2ncnc3[nH]cnc23)c1F)c1cn[nH]c1`, the IC50 was 0.2 nM in assay [1], 1 nM in assay [2] and 6 nM in assay [3]. Moreover, in assay [4], the concentration for a half-maximal effect (EC50) was found to be 807 nM. The Ratio in the assay on MIA PaCa-2 is 135.

On to `CS(=O)(=O)Nc1ccc(F)c(Nc2ncccc2-c2ncnc3[nH]cnc23)c1F`, for which the IC50 turned out to be 360 nM in assay [1], 412 nM in assay [2] and 356 nM in assay [3]. Moreover, in assay [4], the EC50 stood at 6690 nM. In addition, the Ratio with MIA PaCa-2 is 19.

For the compound `CCN(C)S(=O)(=O)Nc1ccc(F)c(Nc2ncccc2-c2ncnc3[nH]cnc23)c1F`, the values for the IC50 in assay [1], in assay [2] and in assay [3] were 22 nM, 157 nM and 87 nM, respectively. The EC50 in assay [4] was determined as 1780 nM. In addition, the Ratio with MIA PaCa-2 amounted to 20.

`O=S(=O)(Nc1ccc(F)c(Nc2ncccc2-c2ncnc3[nH]cnc23)c1F)C1CC1`: the figures for the IC50 in assay [1], in assay [2] and in assay [3] were 41 nM, 132 nM and 173 nM, respectively. Besides, the EC50 in assay [4] is 2070 nM. In addition, in the assay with MIA PaCa-2, the Ratio worked out at 12.

Take `O=S(=O)(Nc1ccc(F)c(Nc2ncccc2-c2ncnc3[nH]cnc23)c1F)c1cccc(F)c1`: the IC50 in assay [1] was 3 nM; in assay [2], 4 nM; in assay [3] it was 15 nM. Also, in assay [4], the EC50 was determined as 1510 nM. Besides, the Ratio in the assay on MIA PaCa-2 was 101.

In the case of `CCCS(=O)(=O)Nc1ccc(F)c(Nc2ncccc2-c2ncnc3[nH]cnc23)c1F`, the IC50 in assay [1] is 9 nM; in assay [2], 12 nM; in assay [3], 24 nM. The EC50 in assay [4] came out at 936 nM. Besides, the Ratio with MIA PaCa-2 worked out at 39.

Consider `O=S(=O)(Nc1ccc(F)c(Nc2ncccc2-c2ncnc3[nH]cnc23)c1F)N1CCCCC1`, for which the IC50 came out at 15 nM in assay [1], 38 nM in assay [2] and 65 nM in assay [3]. In assay [4], the concentration giving a half-maximal response (EC50) is 1220 nM. Also, in the assay on MIA PaCa-2, the Ratio was 19.

Take `O=S(=O)(Nc1ccc(F)c(Nc2ncccc2-c2ncnc3[nH]cnc23)c1F)N1CC[C@H](O)C1`: the IC50 was 9 nM in assay [1], 122 nM in assay [2] and 201 nM in assay [3].

`O=S(=O)(Nc1ccc(F)c(Nc2ncccc2-c2ncnc3[nH]cnc23)c1F)C1CCC1`: the half-inhibitory concentration (IC50) came out at 4 nM in assay [1], 46 nM in assay [2] and 41 nM in assay [3]. Further, the EC50 in assay [4] amounted to 1790 nM. The Ratio in the assay with MIA PaCa-2 worked out at 44.

In the case of `O=S(=O)(Nc1ccc(F)c(Nc2ncccc2-c2ncnc3[nH]cnc23)c1F)c1nccs1`, the half-maximal inhibitory concentration (IC50) in assay [1] was 1 nM; in assay [2], 2 nM; in assay [3] it was 31 nM. Moreover, the EC50 in assay [4] was 783 nM. In addition, in the assay with MIA PaCa-2, the Ratio was found to be 25.

For `O=S(=O)(Nc1ccc(F)c(Nc2ncccc2-c2ncnc3[nH]cnc23)c1F)c1ccccn1`, the figures for the IC50 in assay [1], in assay [2] and in assay [3] were 21 nM, 41 nM and 177 nM, respectively. Besides, in assay [4], the EC50 is 7940 nM. In addition, in the assay with MIA PaCa-2, the Ratio was 45.

As to `O=S(=O)(Nc1ccc(F)c(Nc2ncccc2-c2ncnc3[nH]cnc23)c1F)C1CCOCC1`, the half-maximal inhibitory concentration (IC50) in assay [1] was 31 nM; in assay [2], 179 nM; in assay [3] it was 356 nM.

In the case of `CC(C)(C)CS(=O)(=O)Nc1ccc(F)c(Nc2ncccc2-c2ncnc3[nH]cnc23)c1F`, the IC50 in assay [1] came out at 6 nM; in assay [2] it was 5 nM; in assay [3], 63 nM. Besides, the EC50 in assay [4] came out at 202 nM. Besides, the Ratio in the assay with MIA PaCa-2 amounted to 3.

For the compound `O=S(=O)(Nc1ccc(F)c(Nc2ncccc2-c2ncnc3[nH]cnc23)c1F)C1CCOC1` (stereo not given), the values for the IC50 in assay [1], in assay [2] and in assay [3] were 5 nM, 26 nM and 31 nM, respectively. In addition, the EC50 in assay [4] was found to be 1480 nM. For the same compound, the Ratio with MIA PaCa-2 came out at 48.

Regarding `CCN(CC)S(=O)(=O)Nc1ccc(F)c(Nc2ncccc2-c2ncnc3[nH]cnc23)c1F`, the IC50 was 57 nM in assay [1], 165 nM in assay [2] and 603 nM in assay [3]. The EC50 in assay [4] stood at 9910 nM. In addition, the Ratio in the assay with MIA PaCa-2 was 16.

Consider `O=S(=O)(Cc1ccccc1)Nc1ccc(F)c(Nc2ncccc2-c2ncnc3[nH]cnc23)c1F`, for which the concentration for half-maximal inhibition (IC50) in assay [1] was 186 nM; in assay [2], 111 nM; in assay [3], more than 1000 nM. The EC50 in assay [4] worked out at 5080 nM.

As for `O=S(=O)(Nc1ccc(F)c(Nc2ncccc2-c2ncnc3[nH]cnc23)c1F)c1ccccc1`, the IC50 is 7 nM in assay [1], 17 nM in assay [2] and 28 nM in assay [3]. Further, the EC50 in assay [4] is 2290 nM. Moreover, the Ratio in the assay with MIA PaCa-2 amounted to 82.

On to `O=S(=O)(Nc1ccc(F)c(Nc2ncccc2-c2ncnc3[nH]cnc23)c1F)N1CCNCC1`, for which the figures for the IC50 in assay [1], in assay [2] and in assay [3] were more than 1000 nM, more than 1000 nM and 1000 nM, respectively.

Consider `CC(C)S(=O)(=O)Nc1ccc(F)c(Nc2ncccc2-c2ncnc3[nH]cnc23)c1F`, for which the results for the IC50 in assay [1], in assay [2] and in assay [3] were 14 nM, 66 nM and 45 nM, respectively. For the same compound, the concentration giving a half-maximal response (EC50) in assay [4] was determined as 1540 nM. In addition, the Ratio in the assay with MIA PaCa-2 stood at 34.

`O=S(=O)(Nc1ccc(F)c(Nc2ncccc2-c2ncnc3[nH]cnc23)c1F)N1CCOCC1`: the IC50 was 62 nM in assay [1], 102 nM in assay [2] and 293 nM in assay [3]. In addition, the EC50 in assay [4] turned out to be 3580 nM. The Ratio in the assay on MIA PaCa-2 was found to be 12.

As for `O=S(=O)(Nc1ccc(F)c(Nc2ncccc2-c2ncnc3[nH]cnc23)c1F)N1CC[C@@H](O)C1`, the results for the IC50 in assay [1], in assay [2] and in assay [3] were 16 nM, 68 nM and 233 nM, respectively. Besides, the EC50 in assay [4] came to 7190 nM. Besides, the Ratio in the assay on MIA PaCa-2 amounted to 31.

As for `O=S(=O)(CC(F)(F)F)Nc1ccc(F)c(Nc2ncccc2-c2ncnc3[nH]cnc23)c1F`, the results for the IC50 in assay [1], in assay [2] and in assay [3] were 3 nM, 10 nM and 40 nM, respectively. Also, in assay [4], the EC50 was 713 nM. The Ratio with MIA PaCa-2 worked out at 18.

Consider `O=S(=O)(Nc1ccc(F)c(Nc2ncccc2-c2ncnc3[nH]cnc23)c1F)N1CCCC1`, for which the IC50 in assay [1] worked out at 2 nM; in assay [2], 31 nM; in assay [3] it was 44 nM. For the same compound, the EC50 in assay [4] was 2070 nM. In the assay with MIA PaCa-2, the Ratio is 47.

In the case of `O=S(=O)(Nc1ccc(F)c(Nc2ncccc2-c2ncnc3[nH]cnc23)c1F)C1CCCC1`, the IC50 in assay [1] was 2 nM; in assay [2] it was 21 nM; in assay [3], 11 nM. The EC50 in assay [4] worked out at 1800 nM. The Ratio in the assay with MIA PaCa-2 worked out at 164.

For the compound `CCC(C)S(=O)(=O)Nc1ccc(F)c(Nc2ncccc2-c2ncnc3[nH]cnc23)c1F` (stereo not given), the IC50 in assay [1] came out at 7 nM; in assay [2], 38 nM; in assay [3], 27 nM. Besides, the EC50 in assay [4] was found to be 778 nM. In the assay with MIA PaCa-2, the Ratio was 29.

For `O=S(=O)(Nc1ccc(F)c(Nc2ncccc2-c2ncnc3[nH]cnc23)c1F)c1ccc(F)cc1`, the IC50 in assay [1] is 36 nM; in assay [2], 83 nM; in assay [3], 242 nM. Further, the EC50 in assay [4] stood at 5650 nM. In addition, the Ratio in the assay on MIA PaCa-2 worked out at 23.
